Assay results reported in ChEMBL document CHEMBL1128356, “Antineoplastic agents. 291. Isolation and synthesis of combretastatins A-4, A-5, and A-6(1a)” (1995).

What was measured:
[1] = test system: NCI 60 human tumor cell line panel (Homo sapiens); assay: In vitro inhibitory activity against NCI 60 human tumor cell line panel
[2] = test system: Panel (Carcinoma cell lines); assay: In vitro antitumor activity against human tumor cancer cell lines; format: functional

| Structure (SMILES) | GI50 [1] [nM] | GI50 [2] [nM] |
| --- | --- | --- |
| COc1ccc(/C=C/c2cc(O)c(OC)c(OC)c2)cc1OC | > 100000 |  |
| COc1ccc(/C=C\c2cc(OC)c(OC)c(OC)c2)c(O)c1O [COMBRETASTATIN A-1] |  | 16.2 |
| COc1ccc(/C=C\c2cc(OC)c(OC)c(OC)c2)cc1O [COMBRETASTATIN A4] | 3.2 |  |
| COc1ccc(/C=C\c2cc(O)c(OC)c(OC)c2)cc1OC | 1650 |  |
| COc1ccc(/C=C\c2cc(OC)c3c(c2)OCO3)cc1O [Combretastatin A-2] |  | 31.6 |
